According to ChEMBL document CHEMBL2074164, “Characterization of the transport of the bicyclic peptide phalloidin by human hepatic transport proteins” (Naunyn Schmiedebergs Arch Pharmacol, 2003):
*1 amine or outer side, *2 acyl side, *3 side chain or, on linkers, in order; H or OH if unused. Where a SMILES comes first, the peptide text is derived from it. Bridges are numbered along the chain shown (N, C = ends). [ ]: non-standard residue; d: D form. Trp(2-yl) = O=C([C@H](Cc1c([*:3])[nH]c2ccccc12)N[*:1])[*:2]; Leu(4R-OH,5-OH) = C[C@](O)(CO)C[C@H](N)C(=O)O; cisHyp = O=C(O)[C@@H]1C[C@H](O)CN1

T1: Solute carrier organic anion transporter family member 1B1 (Homo sapiens, UniProt Q9Y6L6)
T1 sequence (Q9Y6L6 whole entry): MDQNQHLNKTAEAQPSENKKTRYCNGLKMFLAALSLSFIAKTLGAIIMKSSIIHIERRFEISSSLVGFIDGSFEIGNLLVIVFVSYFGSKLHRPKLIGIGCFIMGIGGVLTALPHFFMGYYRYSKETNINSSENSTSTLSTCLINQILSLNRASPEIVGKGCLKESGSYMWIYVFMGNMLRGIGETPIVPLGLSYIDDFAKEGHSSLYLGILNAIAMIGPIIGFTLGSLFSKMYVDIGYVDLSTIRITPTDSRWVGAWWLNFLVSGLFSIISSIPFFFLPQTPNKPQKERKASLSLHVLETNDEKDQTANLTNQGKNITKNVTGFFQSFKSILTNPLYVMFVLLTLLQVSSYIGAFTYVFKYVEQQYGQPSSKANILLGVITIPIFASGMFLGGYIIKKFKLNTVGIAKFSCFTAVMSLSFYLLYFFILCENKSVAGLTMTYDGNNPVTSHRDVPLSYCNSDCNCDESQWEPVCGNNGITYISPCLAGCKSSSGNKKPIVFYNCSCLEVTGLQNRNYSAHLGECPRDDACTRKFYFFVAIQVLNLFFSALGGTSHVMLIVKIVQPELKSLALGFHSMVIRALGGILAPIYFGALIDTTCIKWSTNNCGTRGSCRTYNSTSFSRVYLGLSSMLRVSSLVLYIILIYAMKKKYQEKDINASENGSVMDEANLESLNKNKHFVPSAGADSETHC

B1: Solute carrier organic anion transporter family member 1B1 (Homo sapiens) (protein)
chain: MDQNQHLNKTAEAQPSENKKTRYCNGLKMFLAALSLSFIAKTLGAIIMKSSIIHIERRFEISSSLVGFIDGSFEIGNLLVIVFVSYFGSKLHRPKLIGIGCFIMGIGGVLTALPHFFMGYYRYSKETNINSSENSTSTLSTCLINQILSLNRASPEIVGKGCLKESGSYMWIYVFMGNMLRGIGETPIVPLGLSYIDDFAKEGHSSLYLGILNAIAMIGPIIGFTLGSLFSKMYVDIGYVDLSTIRITPTDSRWVGAWWLNFLVSGLFSIISSIPFFFLPQTPNKPQKERKASLSLHVLETNDEKDQTANLTNQGKNITKNVTGFFQSFKSILTNPLYVMFVLLTLLQVSSYIGAFTYVFKYVEQQYGQPSSKANILLGVITIPIFASGMFLGGYIIKKFKLNTVGIAKFSCFTAVMSLSFYLLYFFILCENKSVAGLTMTYDGNNPVTSHRDVPLSYCNSDCNCDESQWEPVCGNNGITYISPCLAGCKSSSGNKKPIVFYNCSCLEVTGLQNRNYSAHLGECPRDDACTRKFYFFVAIQVLNLFFSALGGTSHVMLIVKIVQPELKSLALGFHSMVIRALGGILAPIYFGALIDTTCIKWSTNNCGTRGSCRTYNSTSFSRVYLGLSSMLRVSSLVLYIILIYAMKKKYQEKDINASENGSVMDEANLESLNKNKHFVPSAGADSETHC

Experiments:
Format in all cases: functional, cell-based
[1] = molecular target: T1, Solute carrier organic anion transporter family member 1B1; experiment: TP_TRANSPORTER: inhibition of Phalloidin uptake (Phalloidin: 1 uM) in OATP-C-expressing HEK293 cells
[2] = molecular target: Canalicular multispecific organic anion transporter 1/Solute carrier organic anion transporter family member 1B1 (Homo sapiens, UniProt Q92887+Q9Y6L6); experiment: TP_TRANSPORTER: transepithelial transport (basal to apical) of Phalloidin at a concentration of 1 uM in MRP2- and OATP-C-expressing MDCKII cells; settings: dog, mdck-ii
[3] = molecular target: T1, Solute carrier organic anion transporter family member 1B1; experiment: TP_TRANSPORTER: inhibition of Phalloidin uptake (Phalloidin: 1 uM) by alpha-Amanitin at a concentration of 20 u M in OATP-C-expressing HEK293 cells; settings: hek293, 20 µM
[4] = substrate: C[C@@H]1NC(=O)[C@H](C[C@@](C)(O)CO)NC(=O)[C@@H]2Cc3c([nH]c4ccccc34)SC[C@H](NC(=O)[C@@H]([C@H](C)O)NC1=O)C(=O)N1C[C@@H](O)C[C@H]1C(=O)N[C@@H](C)C(=O)N2; experiment: TP_TRANSPORTER: uptake in OATP-C-expressing HEK293 cells

| Molecule | IC50 [1] [nM] | further results |
| --- | --- | --- |
| O=C1OC(c2ccc(O)c(S(=O)(=O)O)c2)(c2ccc(O)c(S(=O)(=O)O)c2)c2c(Br)c(Br)c(Br)c(Br)c21 [SULFOBROMOPHTHALEIN SODIUM] | 50 | – |
| CC(C)[C@@H]1NC(=O)[C@@H](Cc2ccccc2)NC(=O)[C@H](Cc2ccccc2)NC(=O)[C@@H]2CCCN2C(=O)[C@@H]2CCCN2C(=O)[C@H](Cc2ccccc2)NC(=O)[C@@H](Cc2ccccc2)NC(=O)[C@H](C)NC(=O)[C@@H]2CCCN2C(=O)[C@@H]2CCCN2C1=O [ANTAMANIDE] | 1000 | – |
| CO[C@H]1C[C@@H]2CC[C@@H](C)[C@@](O)(O2)C(=O)C(=O)N2CCCC[C@H]2C(=O)O[C@H]([C@H](C)C[C@@H]2CC[C@@H](O)[C@H](OC)C2)CC(=O)[C@H](C)/C=C(\C)[C@@H](O)[C@@H](OC)C(=O)[C@H](C)C[C@H](C)/C=C/C=C/C=C/1C [SIROLIMUS] | 1100 | – |
| C[C@@H]1NC(=O)[C@H](C[C@@](C)(O)CO)NC(=O)[C@@H]2Cc3c([nH]c4ccccc34)SC[C@H](NC(=O)[C@@H]([C@H](C)O)NC1=O)C(=O)N1C[C@@H](O)C[C@H]1C(=O)N[C@@H](C)C(=O)N2 [PHALLOIDIN] (cyclo(A[dT]C[cisHyp]A[Trp(2-yl)][Leu(4R-OH,5-OH)]); thioether 3-6) | – | Activity [2]: substrate [+] |
| C=CC[C@@H]1/C=C(\C)C[C@H](C)C[C@H](OC)[C@H]2O[C@@](O)(C(=O)C(=O)N3CCCC[C@H]3C(=O)O[C@H](/C(C)=C/[C@@H]3CC[C@@H](O)[C@H](OC)C3)[C@H](C)[C@@H](O)CC1=O)[C@H](C)C[C@@H]2OC [TACROLIMUS ANHYDROUS] | 3700 | – |
| CC[C@H](C)[C@@H]1NC(=O)CNC(=O)[C@@H]2Cc3c([nH]c4cc(O)ccc34)[S+]([O-])C[C@@H](NC(=O)CNC1=O)C(=O)N[C@@H](CC(N)=O)C(=O)N1C[C@H](O)C[C@H]1C(=O)N[C@@H]([C@@H](C)[C@@H](O)CO)C(=O)N2 (stereo partly drawn) [alpha-Amanitin] | – | Activity [3]: is not an inhibitor [-] |
| B1 | – | Km [4]: 39 µM |
